Laboratory results: US9302998B2, “Aryl triazole compounds with antitumoural activity” (SIGMA-TAU RESEARCH SWITZERLAND S.A., priority 2010, dated 2016)

What was measured:
Hsp90 = molecular target: T1, Hsp90 (Homo sapiens, UniProt P07900); test: Fluorescence Polarization (FP) binding, GM-BODIPY displacement from Hsp90; conditions: GM-BODIPY tracer, 4° C. for 4 hours
T1 construct: purchased Stressgen SPP-776
Description: GM-BODIPY (PerkinElmer, CUSN60342000MG) was previously dissolved in DMSO to obtain 10 mM stock solutions and kept at −20° C. until use.
Hsp90 (Stressgen, SPP-776), was previously dissolved in assay buffer (HFB) to form 2.2 μM stock solutions and kept at −80° C. until use.
The compounds were previously dissolved in DMSO to obtain stock solutions and kept at −20° C. The day of experiment, the compounds were prepared by serial dilutions in assay buffer (HFB) containing 20 mM HEPES (K) pH 7.3, 50 mM KCl, 5 mM MgCl2, 20 mM Na2MoO4 and 0.01% NP40. Before each use, 0.1 mg/ml Bovine Gamma globulin and 2 mM DTT were freshly added.
Fluorescence Polarization (FP) was performed in Opti-Plate™-96F well plates (Perkin Elmer, Zaventem, Belgium) using a plate reader (Wallac Envision 2101 multilabel reader, Perkin Elmer, Zaventem, Belgium). To evaluate the binding affinity of the molecules, 50 μl of the GM-BODIPY solution (100 nM) were added to 125 nM of Hsp90 in the presence of 5 μl of the test compounds at increasing concentrations. The plate was mixed on a shaker at 4° C. for 4 hours, and the FP values in mP (millipolarization units) were recorded. The IC50 values were calculated as the inhibitor concentration where 50% of the tracer is displaced; each data point is the result of the average of triplicate wells, and was determined from a plot using nonlinear least-squares analysis. Curve fitting was performed using
Prism GraphPad software program (GraphPad software, Inc., San Diego, Calif.).

[1] = tested on: NCI-H460 non-small cell lung carcinoma; test: Cytotoxicity assay, sulphorodamine B test, NCI-H460; type: cell-based; conditions: Homo sapiens, NCI-H460; 72 h, sulphorodamine B
Description: The antiproliferative activity of novel Hsp90 inhibitors was also evaluated on various cancerous cell lines by means of the sulphorodamine B test (i.e., NCI-H460 non-small cell lung carcinoma, A431 epidermoid, A2780 ovarian, MDA-MB436 triple-negative breast, U87MG glioblastoma, A498 renal, HCT116 colon, MeWo melanoma, MiaPaCa2 pancreas, HeLa cervix uteri, NB4 promyelocytic leukemia). NCI-H460, A431, MDA-MB436, A2780, A498, HeLa, NB4 tumour cells were grown in RPMI 1640 containing 10% fetal bovine serum (i.e., FBS from GIBCO), L-glutamine, and 50 μg/ml gentamycin sulfate.
All cell lines were maintained in a 37° C. incubator with saturated humidity and an atmosphere containing 95% air and 5% CO2, and were sub-cultured every 2-3 days. Tumour cells were seeded in 96-well tissue culture plates at approximately 10% confluence and were allowed to attach and recover for 24 h.
Varying concentrations of the drugs were then added to each well to calculate their IC50 value (the concentration which inhibits the 50% of cell survival). The plates were incubated at 37° C. for 72 h. At the end of the treatment, the plates were washed by remotion of the supernatant and addition of PBS 3 times. 200 μl PBS and 50 μl of cold 80% trichloroacetic acid (TCA) were added. The plates were incubated on ice for at least 1 h. TCA was removed, the plates were washed 3 times by immersion in distilled-water and dried on paper and at 40° C. for […]. Then 200 μl of 0.4% sulphorodamine B in 1% acetic acid were added. The plates were incubated at room temperature for 30 min. Sulphorodamine B was removed, the plates were washed by immersion in 1% acetic acid for 3 times, then they were dried on paper and at 40° C. for 5 min. Then, 200 μl Tris 10 mM were added, the plates were kept under stirring for 20 min. The cell survival was determined as optical density by a Multiskan […] at 540 nm. The amount of cells killed was calculated as the percentage decrease in sulphorodamine B binding compared with control cultures.

Compound: CC(C)c1cc(-n2nncc2-c2ccc(CN3CCOCC3)cc2)c(O)cc1O [Example 1]
- IC50 (Hsp90): < 50 nM
- IC50 [1]: 100 to 500 nM

Compound: CC(C)c1cc(-n2nncc2-c2ccc(CN3CCN(c4ccccc4)CC3)cc2)c(O)cc1O [Example 4, 4-isopropyl-6-{5-[4-(4-phenyl-piperazin-1-ylmethyl)-phenyl]-[1,2,3]triazol-1-yl}-benzene-1,3-diol]
- IC50 (Hsp90): < 50 nM
- IC50 [1]: 500 to 1000 nM

Compound: CCNC(=O)c1nnn(-c2cc(C(C)C)c(O)cc2O)c1-c1ccc(CN(CC)CC)cc1 [Example 10, 5-(4-diethylaminomethyl-phenyl)-1-(2,4-dihydroxy-5-isopropyl-phenyl)-1H-[1,2,3]triazole-4-carboxylic acid ethylamide]
- IC50 (Hsp90): < 50 nM
- IC50 [1]: < 50 nM

Compound: CCNC(=O)c1nnn(-c2cc(C(C)C)c(O)cc2O)c1-c1ccc(CNC2CCCCC2)cc1 [Example 16, 5-(4-cyclohexylaminomethyl-phenyl)-1-(2,4-dihydroxy-5-isopropyl-phenyl)-1H-[1,2,3]triazole-4-carboxylic acid ethylamide]
- IC50 (Hsp90): < 50 nM
- IC50 [1]: < 50 nM

Compound: CCNC(=O)c1nnn(-c2cc(C(C)C)c(O)cc2O)c1-c1ccc(CNCCCN(CC)CC)cc1 [Example 18, 5-{4-[(3-diethylamino-propylamino)-methyl]-phenyl}-1-(2,4-dihydroxy-5-isopropyl-phenyl)-1H-[1,2,3]triazole-4-carboxylic acid ethylamide]
- IC50 (Hsp90): < 50 nM
- IC50 [1]: 500 to 1000 nM

Compound: CCNC(=O)c1nnn(-c2cc(C(C)C)c(O)cc2O)c1-c1ccc(CNC2CCN(C)CC2)cc1 [Example 19, 1-(2,4-dihydroxy-5-isopropyl-phenyl)-5-{4-[(1-methyl-piperidin-4-ylamino)-methyl]-phenyl}-1H-[1,2,3]triazole-4-carboxylic acid ethylamide]
- IC50 (Hsp90): < 50 nM

Compound: CC(C)c1cc(-n2nncc2Nc2ccc(N3CCOCC3)cc2)c(O)cc1O [Example 23, 4-isopropyl-6-[5-(4-morpholin-4-yl-phenylamino)-[1,2,3]triazol-1-yl]-benzene-1,3-diol]
- IC50 (Hsp90): 50 to 100 nM

Compound: CC(C)c1cc(-n2nncc2NCc2ccc(N3CCOCC3)cc2)c(O)cc1O [Example 24, 4-isopropyl-6-[5-(4-morpholin-4-yl-benzylamino)-[1,2,3]triazol-1-yl]-benzene-1,3-diol]
- IC50 (Hsp90): 100 to 500 nM

Compound: CCNC(=O)c1nnn(-c2cc(C(C)C)c(O)cc2O)c1Nc1ccc(N2CCOCC2)cc1 [Example 25, 1-(2,4-dihydroxy-5-isopropyl-phenyl)-5-(4-morpholin-4-yl-phenylamino)-1H-[1,2,3]triazole-4-carboxylic acid ethylamide]
- IC50 (Hsp90): 50 to 100 nM
- IC50 [1]: 500 to 1000 nM

Compound: CC(C)c1cc(-n2nnc(C(=O)N3CCOCC3)c2-c2ccc(CN3CCOCC3)cc2)c(O)cc1O [Example 30, [1-(2,4-dihydroxy-5-isopropyl-phenyl)-5-(4-morpholin-4-ylmethyl-phenyl)-1H-[1,2,3]triazol-4-yl]-morpholin-4-yl-methanone]
- IC50 (Hsp90): 100 to 500 nM

Compound: CC(C)c1cc(-n2nnc(C(=O)N[C@H](C(=O)O)C(C)C)c2-c2ccc(CN3CCOCC3)cc2)c(O)cc1O [Example 31, (S)-2-{[1-(2,4-dihydroxy-5-isopropyl-phenyl)-5-(4-morpholin-4-ylmethyl-phenyl)-1H-[1,2,3]triazole-4-carbonyl]-amino}-3-methyl-butyric acid]
- IC50 (Hsp90): 100 to 500 nM
